Data reported in PubChem BioAssay AID463222 (The Scripps Research Institute Molecular Screening Center, 2010).
Activity calls are given as the source filed them. No rule for the calls is given here.

These compounds were tested against Serine/threonine-protein phosphatase 5 (Homo sapiens) (UniProt P53041) (assay: inhibition of PP5 cleaving OMFP – biochemical, fluorescence, single concentration, late-stage follow-up (AID 463222)). Details: PP5 OMFP dephosphorylation, at 6.7 µM, active compounds read high.
Chain of Serine/threonine-protein phosphatase 5 (Homo sapiens) (P53041 whole entry, looked up): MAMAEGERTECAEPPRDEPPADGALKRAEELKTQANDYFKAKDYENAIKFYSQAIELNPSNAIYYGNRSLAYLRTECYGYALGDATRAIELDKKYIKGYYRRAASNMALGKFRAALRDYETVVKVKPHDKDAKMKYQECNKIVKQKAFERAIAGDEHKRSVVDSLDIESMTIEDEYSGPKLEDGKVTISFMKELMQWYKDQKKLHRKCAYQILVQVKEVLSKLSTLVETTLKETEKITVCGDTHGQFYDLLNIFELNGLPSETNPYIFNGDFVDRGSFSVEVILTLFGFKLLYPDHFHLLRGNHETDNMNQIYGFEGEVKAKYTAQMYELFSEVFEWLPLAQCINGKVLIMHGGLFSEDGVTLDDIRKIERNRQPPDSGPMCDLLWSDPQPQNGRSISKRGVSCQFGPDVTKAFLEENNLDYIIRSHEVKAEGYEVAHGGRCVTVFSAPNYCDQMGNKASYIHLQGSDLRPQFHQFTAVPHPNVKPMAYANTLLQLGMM

Row | Structure (SMILES) | inhibition
1 | COc1cc(Br)c(C(=O)c2nccc3cc(OC)c(OC)cc23)cc1OC | 1.12% (inactive)
2 | CCOC(=O)c1sc2nc3c(SCC(=O)O)cc(C(=O)c4cc(F)ccc4O)cn3c(=O)c2c1C | -0.13% (inactive)
3 | COc1cnc(-c2ccccn2)nc1Sc1ccc(Cl)cc1 | 4.61% (inactive)
4 | Cc1ccc(C(=O)NNc2cc(N3CCCC3)nc(N3CCCC3)n2)cc1 | 8.52% (inactive)
5 | CN1CCN(C(c2ccccn2)c2cc(Cl)c3cccnc3c2O)CC1 (stereo not given) | 8.11% (inactive)
6 | O=C(O)C1C2CCC(O2)C1C(=O)NC1CCCCC1 (stereo not given) | 42.5%
7 | O=C(NC1(O)C(=O)c2ccccc2C1=O)c1ccccc1 | 4.22% (inactive)
8 | O=C(O)c1cc(-c2ccc(Cl)c(Cl)c2)n(-c2ccc(F)cc2)n1 | -3.2% (inactive)
9 | Nc1cc2nsnc2cc1Br | 0.76% (inactive)
10 | Cc1ccc(-n2nc(C(=O)O)cc2-c2ccc(Cl)cc2)cc1 | -5.42% (inactive)
11 | Cc1nnc(NC(=O)C2C3C=CC(O3)C2C(=O)O)s1 (stereo not given) | 22.3%
12 | CCOC(=O)c1nn(-c2ccc(C)cc2)c(=O)c2c(N)scc12 | -0.12% (inactive)
13 | COc1ccc(CN2C(=O)Cc3c2nc(N)c2c(N)nc(N4CCCCC4)c(C#N)c32)cc1 | 1.97% (inactive)
14 | CCOC(=O)C1=C(C)OC2(O)c3ccccc3C(=O)C12O (stereo not given) | 11.2% (inactive)
15 | COc1ccc(C(=O)c2nccc3cc(OC)c(OC)cc23)cc1OC | 2.42% (inactive)
16 | O=C(O)c1n[nH]nc1-c1ccccc1 | 53.4%
17 | CCOC(=O)c1cnc(-n2nc(C)cc2C)nc1NC1CCCCC1 | 3.66% (inactive)
18 | COc1cnc(-c2ccccn2)nc1Sc1ccc(C)cc1 | 2.23% (inactive)
19 | N#Cc1c(-c2ccc(Cl)cc2)cc(-c2cccs2)nc1SCC(=O)O | -2.49% (inactive)
20 | Cc1[nH]n(-c2ccccc2)c(=O)c1C(c1ccc([N+](=O)[O-])cc1)c1c(C)[nH]n(-c2ccccc2)c1=O | -3.88% (inactive)
21 | CC(C)(CS(=O)(=O)[O-])NC(=O)CC[N+](C)(C)CCO | 0.86% (inactive)
22 | CCCCN(CC)c1nc(N)c2c(N)nc(OCC)cc2c1C#N | 0.32% (inactive)

Row | Structure (SMILES) | inhibition
23 | CCOc1ccc(NC(=S)Nc2ccc3nsnc3c2)cc1 | 3.93% (inactive)
24 | Oc1ccc(/C=N/Nc2cc(N3CCOCC3)nc(N3CCOCC3)n2)c(O)c1 | 11.4% (inactive)
25 | c1ccc(-c2nccc(-c3ccc(-n4cnc5ccccc54)cc3)n2)nc1 | 6.97% (inactive)
26 | CCOC(=O)c1cnc(-n2nc(C)cc2C)nc1NCc1ccccc1 | 3.84% (inactive)
27 | O=C(Nc1nc(-c2ccccn2)cs1)C1CC(=O)N(c2ccc3c(c2)OCCO3)C1 (stereo not given) | 2.9% (inactive)
28 | CCOC(=O)c1sc(N2C(=O)C(O)=C(C(=O)c3ccco3)C2c2cccc([N+](=O)[O-])c2)nc1C (stereo not given) | -2.08% (inactive)
29 | COc1cnc(-c2ccccn2)nc1Oc1cccc(C(F)(F)F)c1 | -5.73% (inactive)
30 | CCOC(=O)c1cnc(-n2nc(C)cc2C)nc1NCCc1ccccc1 | 6.83% (inactive)
31 | c1ccc(Nc2nc(-c3ccccn3)cs2)cc1 | 2.82% (inactive)
32 | O=C(O)c1cc(-c2ccc(Cl)cc2)n(-c2cccc(Cl)c2)n1 | -5.16% (inactive)
33 | O=C(O)c1cc(-c2ccc(Cl)c(Cl)c2)n(-c2ccccc2)n1 | -2.01% (inactive)
34 | COc1cnc(-c2ccccn2)nc1Sc1ccccc1 | 3.72% (inactive)
35 | O=S(=O)(Cc1cc(NCc2ccccc2)nc(-c2ccccn2)n1)c1ccccc1 | 4.59% (inactive)
36 | COc1ccc(Sc2nc(-c3ccccn3)ncc2OC)cc1 | 3.64% (inactive)
37 | COc1ccc(OCCCC(=O)Nc2nc(-c3ccccn3)cs2)cc1 | 5.93% (inactive)
38 | COc1ccccc1Sc1nc(-c2ccccn2)ncc1OC | -3.47% (inactive)
39 | CCOC(=O)c1cnc(-n2cc(C)cn2)nc1NCc1ccc2c(c1)OCO2 | 2.2% (inactive)
40 | CCCCn1c(NC(=O)c2ccco2)c(C(=O)OCC)c2nc3ccccc3nc21 | 2.48% (inactive)
41 | O=C1CCCC2=C1C1(O)C(=O)c3ccccc3C1(O)O2 (stereo not given) | 9.53% (inactive)
42 | COc1ccc(NC(=S)Nc2ccc3nsnc3c2)cc1 | 2.75% (inactive)
43 | CCOC(=O)c1cnc(-n2nc(C)cc2C)nc1NC(C)c1ccccc1 (stereo not given) | 5.83% (inactive)
44 | Clc1ccc(-n2nnnc2-c2cnc(-c3ccccn3)nc2-c2cccs2)cc1 | -2.47% (inactive)

Row | Structure (SMILES) | inhibition
45 | O=C(NC1(O)C(=O)c2ccccc2C1=O)c1c(Cl)cccc1Cl | 8.39% (inactive)
46 | Cc1ccc(C(=O)NC2(O)C(=O)c3ccccc3C2=O)cc1C | 6.31% (inactive)
47 | CCCN(CC1CC1)c1nc(N)c2c(N)nc(OC)cc2c1C#N | 2.08% (inactive)
48 | COc1ccc2c(Cl)c(C(=O)N/N=C/c3ccc4c(c3)OCO4)sc2c1 | -2.37% (inactive)
49 | COc1ccc(NC(=O)C2C3CCC(O3)C2C(=O)O)c(OC)c1 (stereo not given) | 51.1%
50 | COc1ccc(Cl)cc1C(=O)Nc1cccc(-c2ccc3nncn3n2)c1 | -0.16% (inactive)
51 | N#Cc1c(N2CCCC(O)C2)nc(N)c2c(N)nc3c(c12)CC(=O)N3C12CC3CC(CC(C3)C1)C2 (stereo not given) | 2.54% (inactive)
52 | O=c1[nH]c(Nc2ccccc2)cc2ccccc12 | 4.67% (inactive)
53 | COc1cnc(-c2ccccn2)nc1Sc1ccccc1Cl | 3.05% (inactive)
54 | COc1cnc(-c2ccccn2)nc1Sc1cccc(Cl)c1 | 4.14% (inactive)
55 | O=C1Nc2ccccc2N2CCCC12 (stereo not given) | -3.11% (inactive)
56 | O=C(NC1(O)C(=O)c2ccccc2C1=O)c1ccc(C(F)(F)F)cc1 | 11.6% (inactive)
57 | Nc1nc(-c2ccccn2)nc(N)c1Cc1ccc(Cl)cc1Cl | 2.71% (inactive)
58 | COc1cnc(-c2ccccn2)nc1Sc1ccc(F)cc1 | 5.48% (inactive)
59 | COc1ccc(Cn2c(N)c(C(=O)NCc3ccco3)c3nc4ccccc4nc32)cc1OC | 2.29% (inactive)
60 | Cc1cc(C)c(S(=O)(=O)/N=C2\C=C(Sc3ncn[nH]3)C(=O)c3ccccc32)cc1C | 4.08% (inactive)
61 | CCn1c2ccccc2c2cc(NC(=O)COC(=O)c3ccc(NC(=O)CC#N)cc3)ccc21 | -3.03% (inactive)
62 | Oc1ccccc1/C=N/Nc1cc(N2CCCC2)nc(N2CCCC2)n1 | 7.43% (inactive)
63 | CC(=O)C(C(C)=O)C1(O)C(=O)c2ccccc2C1=O | 6.75% (inactive)
64 | Oc1cccc(/C=N/Nc2cc(N3CCCC3)nc(N3CCCC3)n2)c1 | 9.26% (inactive)
65 | COc1cnc(-c2ccccn2)nc1Oc1cccc(Cl)c1 | 0.53% (inactive)
